For 26 compounds, inhibition and IC50 results are on record in patent US11149037B2, “Pyrazole MAGL inhibitors” (H. Lundbeck A/S, priority 2017, dated 2021).

Assay [1] addresses MAGL (Homo sapiens (Human), UniProt Q99685). The assay can be described thus: In vitro competitive activity-based protein profiling, human proteomes (prefrontal cortex or PC3 cell membrane fractions). The assay is classed as biochemical. The following applies: human proteome; for inhibition at 1 µM: read-out: MAGL % inh. 1 μM (human); for inhibition at 10 µM: read-out: MAGL % inh. (human) @ 10 μM. On the procedure: (§1) In Vitro Competitive Activity-Based Protein Profiling.
(§2) Proteomes (mouse brain membrane fraction or cell lysates for mouse assays; human prefrontal cortex or PC3 cell membrane fractions for human assays) (50 μL, 1.0 or 2.0 mg/mL total protein concentration) were preincubated with varying concentrations of inhibitors at 37° C. After 30 min, FP-Rh or JW912 or HT-01 (1.0 μL, 50 μM in DMSO) was added and the mixture was incubated for another 30 min at 37° C. Reactions were quenched with SDS loading buffer (15 μL-4×) and run on SDS-PAGE. Following gel imaging, serine hydrolase activity was determined by measuring fluorescent intensity of gel bands corresponding to MAGL and FAAH using ImageJ 1.43u software.

Assay [2] concerns the target MAGL (Mus musculus (Mouse), UniProt O35678). The assay can be described thus: In vitro competitive activity-based protein profiling, mouse proteomes (brain membrane fraction or cell lysates). It is filed as biochemical. To be noted: mouse proteome, read-out: MAGL % inh. 1 μM (mouse). As for the experimental part: as §1, §2

Each structure is given as a SMILES string. Where only a bound is given, the exact number is not on record here.

As a reminder, the IC50 is the concentration that inhibits the measured activity by half. A low value points to greater potency in that assay.

Sequence of MAGL (Homo sapiens (Human), UniProt Q99685) (Q99685 whole entry): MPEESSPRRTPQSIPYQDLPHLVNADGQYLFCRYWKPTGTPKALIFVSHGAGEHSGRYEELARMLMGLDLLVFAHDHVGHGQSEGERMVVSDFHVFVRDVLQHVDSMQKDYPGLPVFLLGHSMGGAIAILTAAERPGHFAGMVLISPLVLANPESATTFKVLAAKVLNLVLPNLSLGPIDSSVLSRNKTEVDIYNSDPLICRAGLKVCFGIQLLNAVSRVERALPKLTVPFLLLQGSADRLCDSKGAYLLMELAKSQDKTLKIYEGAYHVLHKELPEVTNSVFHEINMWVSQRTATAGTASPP
Sequence of MAGL (Mus musculus (Mouse), UniProt O35678) (O35678 whole entry): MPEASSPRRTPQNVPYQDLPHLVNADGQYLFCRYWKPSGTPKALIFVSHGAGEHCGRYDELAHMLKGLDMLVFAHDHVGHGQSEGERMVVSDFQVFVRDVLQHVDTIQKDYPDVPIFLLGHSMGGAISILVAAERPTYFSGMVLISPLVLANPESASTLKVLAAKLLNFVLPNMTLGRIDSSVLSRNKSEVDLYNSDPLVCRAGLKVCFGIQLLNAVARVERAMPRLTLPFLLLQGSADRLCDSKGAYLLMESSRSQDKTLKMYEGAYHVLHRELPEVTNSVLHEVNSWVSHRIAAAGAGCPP

Turning to `C[C@H]1CN(C(=O)n2ccc(NS(C)(=O)=O)n2)CCN1Cc1ccc(Cl)c(N2CCCC2)c1` [Example 42, (S)-N-(1-(4-(4-Chloro-3-(pyrrolidin-1-yl)benzyl)-3-methylpiperazine-1-carbonyl)-1H-pyrazol-3-yl)methanesulfonamide], the inhibition at 1 µM on MAGL [1] and on MAGL [2] was greater than 75% in each case.
As for `CS(=O)(=O)Nc1ccn(C(=O)N2CCN(Cc3ccc(Cl)c(N4CC5CNCC5C4)c3)CC2)n1` (stereo not shown) [Example 152, N-(1-(4-(4-Chloro-3-(hexahydropyrrolo[3,4-c]pyrrol-2(1H)-yl)benzyl)piperazine-1-carbonyl)-1H-pyrazol-3-yl)methanesulfonamide], on MAGL [1], the inhibition at 10 µM is greater than 75%.
The same measure, in the same setting: for `CS(=O)(=O)Nc1ccn(C(=O)N2CCC3(CCN(Cc4ccccc4)C3)CC2)n1` [Example 165, N-(1-(2-Benzyl-2,8-diazaspiro[4.5]decane-8-carbonyl)-1H-pyrazol-3-yl)methanesulfonamide] the value was greater than 75%.
On to `CC(=O)Nc1ccn(C(=O)N2CCC3(CCN(Cc4cccc(C(F)(F)F)c4)C3)CC2)n1` [Example 175, N-(1-(2-(3-(Trifluoromethyl)benzyl)-2,8-diazaspiro[4.5]decane-8-carbonyl)-1H-pyrazol-3-yl)acetamide], for which the inhibition at 1 µM at MAGL [1] and on MAGL [2] was greater than 75% in each case. For the same compound, the half-maximal inhibitory concentration (IC50) at MAGL [1] was less than 0.1 µM.
As to `CN(Cc1ccc(Cl)c(N2CC3COCC3C2)c1)C1CCN(C(=O)n2ccc(NS(C)(=O)=O)n2)CC1` (stereo not shown) [Example 177, N-(1-(4-((4-Chloro-3-(tetrahydro-1H-furo[3,4-c]pyrrol-5(3H)-yl)benzyl)(methyl)amino)piperidine-1-carbonyl)-1H-pyrazol-3-yl)methanesulfonamide], the inhibition at 1 µM at MAGL [1] and on MAGL [2] was greater than 75% throughout.
For the compound `C[C@H]1CN(Cc2ccc(C(F)(F)F)c(N3CC4COCC4C3)c2)CCN1C(=O)n1ccc(NS(C)(=O)=O)n1` (stereo partly drawn) [Example 178, N-(1-((2S)-2-Methyl-4-(3-(tetrahydro-1H-furo[3,4-c]pyrrol-5(3H)-yl)-4-(trifluoromethyl)benzyl)piperazine-1-carbonyl)-1H-pyrazol-3-yl)methanesulfonamide], at MAGL [1], the inhibition at 1 µM was greater than 75% and the IC50 was less than 0.1 µM. In addition, the inhibition at 1 µM at MAGL [2] was greater than 75%.
On to `C[C@H]1CN(C(=O)n2ccc(NS(C)(=O)=O)n2)CCN1Cc1ccc(C(F)(F)F)c(N2CC3COCC3C2)c1` (stereo partly drawn) [Example 179, N-(1-((3S)-3-Methyl-4-(3-(tetrahydro-1H-furo[3,4-c]pyrrol-5(3H)-yl)-4-(trifluoromethyl)benzyl)piperazine-1-carbonyl)-1H-pyrazol-3-yl)methanesulfonamide], for which, at MAGL [1], the inhibition at 1 µM is greater than 75% and the IC50 is less than 0.1 µM. Moreover, the inhibition at 1 µM on MAGL [2] is greater than 75%.
For the compound `C[C@@H]1CN(Cc2ccc(C(F)(F)F)c(N3CC4COCC4C3)c2)CCN1C(=O)n1ccc(NS(C)(=O)=O)n1` (stereo partly drawn) [Example 180, N-(1-((2R)-2-Methyl-4-(3-(tetrahydro-1H-furo[3,4-c]pyrrol-5(3H)-yl)-4-(trifluoromethyl)benzyl)piperazine-1-carbonyl)-1H-pyrazol-3-yl)methanesulfonamide], on MAGL [1], the inhibition at 1 µM was greater than 75% and the IC50 was less than 0.1 µM. The inhibition at 1 µM on MAGL [2] was greater than 75%.
For `C[C@@H]1CN(C(=O)n2ccc(NS(C)(=O)=O)n2)CCN1Cc1ccc(Cl)c(N2CC[C@H](F)C2)c1` [Example 203, N-(1-((R)-4-(4-Chloro-3-((S)-3-fluoropyrrolidin-1-yl)benzyl)-3-methylpiperazine-1-carbonyl)-1H-pyrazol-3-yl)methanesulfonamide], on MAGL [1], the inhibition at 1 µM is greater than 75%.
Still for that read-out and setting: for `CS(=O)(=O)Nc1ccn(C(=O)N2CCC3(CCCN3Cc3ccc(Cl)cc3N3CCC(F)CC3)CC2)n1` [Example 204, N-(1-(1-(4-Chloro-2-(4-fluoropiperidin-1-yl)benzyl)-1,8-diazaspiro[4.5]decane-8-carbonyl)-1H-pyrazol-3-yl)methanesulfonamide] the value was greater than 75%; for `CS(=O)(=O)Nc1ccn(C(=O)N2CCC3(CCCN3Cc3ccc(Cl)cc3N3CC4COCC4C3)CC2)n1` (stereo not shown) [Example 205, N-(1-(1-(4-Chloro-2-(tetrahydro-1H-furo[3,4-c]pyrrol-5(3H)-yl)benzyl)-1,8-diazaspiro[4.5]decane-8-carbonyl)-1H-pyrazol-3-yl)methanesulfonamide], greater than 75%.
The same measure, in the same setting: the same measure for `CN(Cc1ccc(Cl)c(N2CCC(F)CC2)c1)C1CCN(C(=O)n2ccc(NS(C)(=O)=O)n2)CC1` [Example 206, N-(1-(4-((4-Chloro-3-(4-fluoropiperidin-1-yl)benzyl)(methyl)amino)piperidine-1-carbonyl)-1H-pyrazol-3-yl)methanesulfonamide]: greater than 75%; for `CC(=O)Nc1ccn(C(=O)N2CCN(Cc3ccc(-c4ccccc4)cc3C)C[C@@H]2C)n1` [Example 207, (S)-N-(1-(2-Methyl-4-((3-methyl-[1,1′-biphenyl]-4-yl)methyl)piperazine-1-carbonyl)-1H-pyrazol-3-yl)acetamide]: greater than 75%.
Turning to `CC(=O)Nc1ccn(C(=O)N2CCN(Cc3ccc(-c4ccccc4)cc3C)C[C@H]2C)n1` [Example 208, (R)-N-(1-(2-Methyl-4-((3-methyl-[1,1′-biphenyl]-4-yl)methyl)piperazine-1-carbonyl)-1H-pyrazol-3-yl)acetamide], at MAGL [1], the inhibition at 1 µM is greater than 75% and the IC50 was less than 0.1 µM.
With `CS(=O)(=O)Nc1ccn(C(=O)N2CCN(Cc3ccc(Cl)c(N4CCC(C#N)CC4)c3)CC2)n1` [Example 211, N-(1-(4-(4-Chloro-3-(4-cyano-piperidin-1-yl)benzyl)piperazine-1-carbonyl)-1H-pyrazol-3-yl)methane-sulfonamide], the inhibition at 1 µM at MAGL [1] is greater than 75%.
Still for that read-out and setting: for `CS(=O)(=O)Nc1ccn(C(=O)N2CCN(Cc3ccc(Cl)c(F)c3)CC2)n1` [Example 212, N-(1-(4-(4-Chloro-3-fluorobenzyl)piperazine-1-carbonyl)-1H-pyrazol-3-yl)methane-sulfonamide] the value was greater than 75%; for `CC(C)C1CCN(c2cc(CN3CCN(C(=O)n4ccc(NS(C)(=O)=O)n4)CC3)ccc2Cl)CC1` [Example 213, N-(1-(4-(4-Chloro-3-(4-isopropyl-piperidin-1-yl)benzyl)piperazine-1-carbonyl)-1H-pyrazol-3-yl)methane-sulfonamide], greater than 75%.
In the case of `CS(=O)(=O)Nc1ccn(C(=O)N2CCN(Cc3ccc(Cl)c(C(F)(F)F)c3)CC2)n1` [Example 214, N-(1-(4-(4-Chloro-3-(trifluoromethyl)benzyl)piperazine-1-carbonyl)-1H-pyrazol-3-yl)methane-sulfonamide], at MAGL [1], the inhibition at 1 µM is greater than 75%.
Still for that read-out and setting: for `C[C@@H]1CN(C(=O)n2ccc(NS(C)(=O)=O)n2)CCN1Cc1ccc(Cl)c(C2CCCC2)c1` [Example 215, (R)-N-(1-(4-(4-Chloro-3-cyclopentyl-benzyl)-3-methyl-piperazine-1-carbonyl)-1H-pyrazol-3-yl)methane-sulfonamide] the value was greater than 75%; for `C[C@H]1CN(C(=O)n2ccc(NS(C)(=O)=O)n2)CCN1Cc1ccc(Cl)c(C2CCCC2)c1` [Example 216, (S)-N-(1-(4-(4-Chloro-3-cyclopentyl-benzyl)-3-methyl-piperazine-1-carbonyl)-1H-pyrazol-3-yl)methane-sulfonamide], greater than 75%.
The same measure, in the same setting: the same measure for `CC(=O)Nc1ccn(C(=O)N2CCC(C)(N(C)Cc3ccc(Cl)c(C)c3)CC2)n1` [Example 217, N-(1-(4-((4-Chloro-3-methylbenzyl) (methyl)amino)-4-methyl-piperidine-1-carbonyl)-1H-pyrazol-3-yl)acetamide]: greater than 75%; for `CS(=O)(=O)Nc1ccn(C(=O)N2CCN(Cc3ccc(F)c(OC(F)(F)F)c3)CC2)n1` [Example 218, N-(1-(4-(4-Fluoro-3-(trifluoromethoxy)benzyl)piperazine-1-carbonyl)-1H-pyrazol-3-yl)methane-sulfonamide]: greater than 75%.
Same read-out and setting: for `CS(=O)(=O)Nc1ccn(C(=O)N2CCN(Cc3cccc(C(F)(F)F)c3Cl)CC2)n1` [Example 219, N-(1-(4-(2-Chloro-3-(trifluoromethyl)benzyl)piperazine-1-carbonyl)-1H-pyrazol-3-yl)methane-sulfonamide] the value was greater than 75%; for `Cc1c(CN2CCN(C(=O)n3ccc(NS(C)(=O)=O)n3)CC2)cccc1C(F)(F)F` [Example 220, N-(1-(4-(2-Methyl-3-(trifluoromethyl)benzyl)piperazine-1-carbonyl)-1H-pyrazol-3-yl)methane-sulfonamide], greater than 75%.
For the compound `CS(=O)(=O)Nc1ccn(C(=O)N2CCN(Cc3ccc(OC(F)F)c(OCC4CC4)c3)CC2)n1` [Example 221, N-(1-(4-(3-(Cyclopropyl-methoxy)-4-(difluoro-methoxy)benzyl)piperazine-1-carbonyl)-1H-pyrazol-3-yl)methane-sulfonamide], at MAGL [1], the inhibition at 1 µM was greater than 75%.
Same read-out and setting: for `CS(=O)(=O)Nc1ccn(C(=O)N2CCN(Cc3ccc(F)c(Oc4ccccc4)c3)CC2)n1` [Example 222, N-(1-(4-(4-Fluoro-3-phenoxy-benzyl)piperazine-1-carbonyl)-1H-pyrazol-3-yl)methane-sulfonamide] the value was greater than 75%.
